Numbered stars: 1 amine (or outer) side, 2 acyl side, 3 side chain; on linkers, the order of the positions; unused ones are H or OH. Bridge positions count the residues as written; N and C are the ends. Square brackets hold non-standard residues; d marks the D form. Peptide text beside a SMILES is read from it. * marks the point of attachment. C20 diacid = O=C(O)CCCCCCCCCCCCCCCCCCC(=O)*; γGlu = O=C(O)[C@H](CCC(=O)[*:2])N[*:1]; NMeI = CC[C@H](C)[C@H](NC)C(=O)O; Sar = CNCC(=O)O
Key:
[1] = target: T1, human calcitonin receptor (hCTR2) (Homo sapiens, UniProt P30988); assay: hCTR2 assay: induction of cAMP (AlphaScreen cAMP Assay kit) in COS7 cells expressing hCTR2; type: cell-based; conditions: cAMP induction in COS7 cells expressing hCTR2; average of a minimum of 3 determinations; read-out: hCTR2 EC50
T1 construct: expressed in transfected cells
T1 sequence (P30988 25-474): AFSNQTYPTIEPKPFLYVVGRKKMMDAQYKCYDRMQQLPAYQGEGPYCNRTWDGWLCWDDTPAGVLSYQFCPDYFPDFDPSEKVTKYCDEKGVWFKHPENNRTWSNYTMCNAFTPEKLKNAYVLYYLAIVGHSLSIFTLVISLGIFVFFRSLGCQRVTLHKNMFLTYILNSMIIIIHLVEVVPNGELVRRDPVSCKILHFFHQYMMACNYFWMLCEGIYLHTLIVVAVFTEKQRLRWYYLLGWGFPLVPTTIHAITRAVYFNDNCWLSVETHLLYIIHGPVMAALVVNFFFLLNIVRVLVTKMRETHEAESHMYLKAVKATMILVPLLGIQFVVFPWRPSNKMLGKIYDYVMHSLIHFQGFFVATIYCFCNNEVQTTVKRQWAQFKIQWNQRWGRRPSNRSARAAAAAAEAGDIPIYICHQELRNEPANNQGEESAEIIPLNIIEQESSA
Procedure, shortened: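 Peptide-induced cAMP in hCTR2-expressing COS7 cells, 15 min at 37° C with phosphodiesterase inhibitor IBMX (100 µM), detected by AlphaScreen; potency from 4PL curves.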

[2] = Solubility assessment (turbidity absorbance at 325 nm); type: physicochemical; conditions: stock 2 mg/ml diluted 1:1, ambient temperature (typically 25°C), n=1; for Solubility, Acetate buffer pH 4: 100 mM acetate buffer pH 4.0; for Solubility, Acetate buffer pH 5: 100 mM acetate buffer pH 5.0; for Solubility, Histidine buffer pH 6: 100 mM histidine buffer pH 6.0; for Solubility, Histidine buffer pH 7: 100 mM histidine buffer pH 7.0; for Solubility, Phosphate buffer pH 6: 100 mM phosphate buffer pH 6.0; for Solubility, Phosphate buffer pH 7: 100 mM phosphate buffer pH 7.0; for Solubility, Phosphate buffer pH 7.5: 100 mM phosphate buffer pH7.5
Procedure, shortened: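 Read-out: turbidity as absorbance at 325 nm (280 nm also read), single samples, ambient temperature of typically 25°C. Samples were a 1:1 mix of 2 mg/ml stock (water, pH 2.5) with 100 mM acetate, histidine or phosphate buffers spanning pH 4.0–7.5. Cut-off: A325 ≤ 0.02 indicates ≥ 1 mg/ml.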

SMILES	EC50 [1]	Solubility, Acetate buffer pH 4 [2]	Solubility, Acetate buffer pH 5 [2]	Solubility, Histidine buffer pH 6 [2]	Solubility, Histidine buffer pH 7 [2]	Solubility, Phosphate buffer pH 6 [2]	Solubility, Phosphate buffer pH 7 [2]	Solubility, Phosphate buffer pH 7.5 [2]
CC[C@H](C)[C@@H](C(=O)N[C@@H](CC(C)C)C(=O)N[C@@H](CO)C(=O)N[C@@H](CO)C(=O)N[C@H](C(=O)N[C@@H](CCC(=O)O)C(=O)N[C@H](C(=O)NCC(=O)N[C@@H](CO)C(=O)N[C@@H](CC(=O)O)C(=O)N[C@H](C(=O)N1CCC[C@H]1C(N)=O)[C@@H](C)O)C(C)C)[C@@H](C)O)N(C)C(=O)[C@H](C)NC(=O)CN(C)C(=O)[C@H](Cc1ccccc1)NC(=O)[C@H](CO)NC(=O)[C@H](CO)NC(=O)[C@H](CCCNC(=N)N)NC(=O)[C@H](Cc1c[nH]cn1)NC(=O)[C@H](CC(C)C)NC(=O)[C@H](Cc1ccccc1)NC(=O)[C@H](CCC(=O)O)NC(=O)[C@H](C)NC(=O)[C@H](CC(C)C)NC(=O)[C@H](CCCNC(=N)N)NC(=O)[C@H](CCC(N)=O)NC(=O)[C@@H](NC(=O)[C@H](C)NC(=O)[C@@H]1CSSC[C@H](NC(=O)[C@H](CCCNC(=N)N)NC(=O)CC[C@H](NC(=O)CCCCCCCCCCCCCCCCCCC(=O)O)C(=O)O)C(=O)N[C@@H](CC(N)=O)C(=O)N[C@@H]([C@@H](C)O)C(=O)N[C@@H](C)C(=O)N[C@@H]([C@@H](C)O)C(=O)N1)[C@@H](C)O [Compound 78, [19CD]-isoGlu-RC()NTATC()ATQRLAEFLHRSSF-Gly(Me)-A-Ile(Me)-LSSTEVGSDTP-NH2] ({C20 diacid-γGlu}-RCNTATCATQRLAEFLHRSSF[Sar]A[NMeI]LSSTEVGSDTP-NH2; disulfide 2-7)	70 pM	SS (SS indicates solubility ≥ 1mg/ml)	SS (SS indicates solubility ≥ 1mg/ml)	SS (SS indicates solubility ≥ 1mg/ml)	SS (SS indicates solubility ≥ 1mg/ml)	SS (SS indicates solubility ≥ 1mg/ml)	SS (SS indicates solubility ≥ 1mg/ml)	SS (SS indicates solubility ≥ 1mg/ml)
CC[C@H](C)[C@@H](C(=O)N[C@@H](CC(C)C)C(=O)N[C@@H](CO)C(=O)N[C@@H](CO)C(=O)N[C@H](C(=O)N[C@@H](CCC(=O)O)C(=O)N[C@H](C(=O)NCC(=O)N[C@@H](CO)C(=O)N[C@@H](CC(=O)O)C(=O)N[C@H](C(=O)N1CCC[C@H]1C(N)=O)[C@@H](C)O)C(C)C)[C@@H](C)O)N(C)C(=O)CN(C)C(=O)[C@H](Cc1ccccc1)NC(=O)[C@H](CO)NC(=O)[C@H](CO)NC(=O)[C@H](CCCNC(=N)N)NC(=O)[C@H](Cc1c[nH]cn1)NC(=O)[C@H](CC(C)C)NC(=O)[C@H](Cc1ccccc1)NC(=O)[C@H](CCC(=O)O)NC(=O)[C@H](C)NC(=O)[C@H](CC(C)C)NC(=O)[C@H](CCCNC(=N)N)NC(=O)[C@H](CCC(N)=O)NC(=O)[C@@H](NC(=O)[C@H](C)NC(=O)[C@@H]1CSSC[C@H](NC(=O)[C@H](CCCNC(=N)N)NC(=O)CC[C@H](NC(=O)CCCCCCCCCCCCCCCCCCC(=O)O)C(=O)O)C(=O)N[C@@H](CC(N)=O)C(=O)N[C@@H]([C@@H](C)O)C(=O)N[C@@H](C)C(=O)N[C@@H]([C@@H](C)O)C(=O)N1)[C@@H](C)O [Compound 79, [19CD]-isoGlu-RC()NTATC()ATQRLAEFLHRSSF-Gly(Me)-Ile(Me)-LSSTEVGSDTP-NH2] ({C20 diacid-γGlu}-RCNTATCATQRLAEFLHRSSF[Sar][NMeI]LSSTEVGSDTP-NH2; disulfide 2-7)	100 pM	SS (SS indicates solubility ≥ 1mg/ml)	SS (SS indicates solubility ≥ 1mg/ml)	SS (SS indicates solubility ≥ 1mg/ml)	SS (SS indicates solubility ≥ 1mg/ml)	SS (SS indicates solubility ≥ 1mg/ml)	SS (SS indicates solubility ≥ 1mg/ml)	SS (SS indicates solubility ≥ 1mg/ml)

— patent EP3046573B1, “AMYLIN ANALOGUES” (Zealand Pharma A/S, priority 2013, dated 2015)
